Results taken from patent US11339163B2, “BRaf inhibitors and use thereof for treatment of cutaneous reactions” (Lutris Pharma Ltd., priority 2017, dated 2022).

Columns and labels:
Test in all cases: KinaseProfiler kinase selectivity assay
Format in all cases: biochemical
PDGFRβ(h) = PDGFRβ(h) (Homo sapiens, UniProt P09619)
Method: (§1) All compounds were prepared to 50× final assay concentration in 100% DMSO. This working stock of the compound was added to the assay well as the first component in the reaction, followed by the remaining components. In the standard KinaseProfiler™ service, there is no pre-incubation step between the compound and the kinase prior to initiation of the reaction. The positive control wells contain all components of the reaction, except the compound of interest; however, DMSO (at a final concentration of 2%) is included in these wells to control for solvent effects. The blank wells contain all components of the reaction, with a reference inhibitor replacing the compound of interest. This abolishes kinase activity and establishes the base-line (0% kinase activity remaining).

MST1(h) = MST1(h) (Homo sapiens, UniProt Q13043)
Method: as §1

Abl(h) = Abl(h) (Homo sapiens, UniProt P00519)
Method: as §1

[1] = target: PI3 Kinase (p110α/p85α)(h) (Homo sapiens, UniProt P42336)
Method: as §1

eEF-2K(h) = eEF-2K(h) (Homo sapiens, UniProt O00418)
Method: as §1

LOK(h) = LOK(h) (Homo sapiens, UniProt O94804)
Method: as §1

PAK2(h) = PAK2(h) (Homo sapiens, UniProt Q13177)
Method: as §1

Plk3(h) = Plk3(h) (Homo sapiens, UniProt Q9H4B4)
Chain of Plk3(h) (Q9H4B4 whole entry): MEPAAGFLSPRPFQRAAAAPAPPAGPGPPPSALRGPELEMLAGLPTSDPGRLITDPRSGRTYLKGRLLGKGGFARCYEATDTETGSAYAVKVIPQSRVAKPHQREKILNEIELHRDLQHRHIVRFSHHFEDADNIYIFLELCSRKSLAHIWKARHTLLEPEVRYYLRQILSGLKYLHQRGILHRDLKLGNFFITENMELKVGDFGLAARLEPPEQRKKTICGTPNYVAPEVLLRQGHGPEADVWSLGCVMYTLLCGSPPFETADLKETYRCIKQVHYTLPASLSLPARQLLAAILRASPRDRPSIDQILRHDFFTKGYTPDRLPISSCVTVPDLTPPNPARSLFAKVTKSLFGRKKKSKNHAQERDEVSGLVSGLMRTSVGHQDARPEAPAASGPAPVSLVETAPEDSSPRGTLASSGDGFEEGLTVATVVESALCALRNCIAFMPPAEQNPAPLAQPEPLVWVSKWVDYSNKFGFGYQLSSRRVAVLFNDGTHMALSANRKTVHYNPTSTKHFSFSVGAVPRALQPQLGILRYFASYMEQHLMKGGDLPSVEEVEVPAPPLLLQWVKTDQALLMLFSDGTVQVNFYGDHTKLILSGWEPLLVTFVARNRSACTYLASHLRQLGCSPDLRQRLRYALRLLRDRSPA
Method: as §1

CaMKI(h) = CaMKI(h) (Homo sapiens, UniProt Q14012)
Method: as §1

[2] = target: PI3 Kinase (p110δ/p85α)(h) (Homo sapiens, UniProt O00329)
Chain of PI3 Kinase (p110δ/p85α)(h) (O00329 whole entry): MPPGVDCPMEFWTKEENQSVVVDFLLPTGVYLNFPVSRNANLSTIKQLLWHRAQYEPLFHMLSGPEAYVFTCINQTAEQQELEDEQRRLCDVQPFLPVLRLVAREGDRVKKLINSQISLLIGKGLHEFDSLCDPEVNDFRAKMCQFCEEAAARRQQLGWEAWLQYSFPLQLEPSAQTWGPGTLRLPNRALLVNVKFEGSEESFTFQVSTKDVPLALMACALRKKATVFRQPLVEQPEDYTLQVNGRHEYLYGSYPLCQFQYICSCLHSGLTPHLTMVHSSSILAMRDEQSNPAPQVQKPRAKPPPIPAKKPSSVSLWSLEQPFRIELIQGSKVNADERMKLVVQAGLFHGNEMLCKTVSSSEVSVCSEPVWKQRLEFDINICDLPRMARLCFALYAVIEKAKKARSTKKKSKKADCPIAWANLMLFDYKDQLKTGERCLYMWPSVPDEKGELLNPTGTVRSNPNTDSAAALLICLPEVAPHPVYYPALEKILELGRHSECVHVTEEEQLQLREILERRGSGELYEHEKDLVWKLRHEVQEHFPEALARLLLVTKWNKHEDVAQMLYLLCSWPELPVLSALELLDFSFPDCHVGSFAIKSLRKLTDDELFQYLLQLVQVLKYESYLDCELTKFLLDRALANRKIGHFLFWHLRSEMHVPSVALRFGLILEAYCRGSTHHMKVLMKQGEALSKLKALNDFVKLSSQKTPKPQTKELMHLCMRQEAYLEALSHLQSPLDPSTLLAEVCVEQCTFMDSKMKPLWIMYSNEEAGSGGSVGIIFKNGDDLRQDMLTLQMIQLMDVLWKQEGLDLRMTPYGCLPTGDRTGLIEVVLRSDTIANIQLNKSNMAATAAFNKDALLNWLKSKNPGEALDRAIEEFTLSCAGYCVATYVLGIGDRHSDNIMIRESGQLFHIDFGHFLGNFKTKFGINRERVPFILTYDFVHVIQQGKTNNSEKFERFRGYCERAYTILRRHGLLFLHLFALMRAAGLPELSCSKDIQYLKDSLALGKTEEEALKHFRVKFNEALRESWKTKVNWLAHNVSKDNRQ
Chain of PI3 Kinase (p110δ/p85α)(h) (P27986 whole entry partner): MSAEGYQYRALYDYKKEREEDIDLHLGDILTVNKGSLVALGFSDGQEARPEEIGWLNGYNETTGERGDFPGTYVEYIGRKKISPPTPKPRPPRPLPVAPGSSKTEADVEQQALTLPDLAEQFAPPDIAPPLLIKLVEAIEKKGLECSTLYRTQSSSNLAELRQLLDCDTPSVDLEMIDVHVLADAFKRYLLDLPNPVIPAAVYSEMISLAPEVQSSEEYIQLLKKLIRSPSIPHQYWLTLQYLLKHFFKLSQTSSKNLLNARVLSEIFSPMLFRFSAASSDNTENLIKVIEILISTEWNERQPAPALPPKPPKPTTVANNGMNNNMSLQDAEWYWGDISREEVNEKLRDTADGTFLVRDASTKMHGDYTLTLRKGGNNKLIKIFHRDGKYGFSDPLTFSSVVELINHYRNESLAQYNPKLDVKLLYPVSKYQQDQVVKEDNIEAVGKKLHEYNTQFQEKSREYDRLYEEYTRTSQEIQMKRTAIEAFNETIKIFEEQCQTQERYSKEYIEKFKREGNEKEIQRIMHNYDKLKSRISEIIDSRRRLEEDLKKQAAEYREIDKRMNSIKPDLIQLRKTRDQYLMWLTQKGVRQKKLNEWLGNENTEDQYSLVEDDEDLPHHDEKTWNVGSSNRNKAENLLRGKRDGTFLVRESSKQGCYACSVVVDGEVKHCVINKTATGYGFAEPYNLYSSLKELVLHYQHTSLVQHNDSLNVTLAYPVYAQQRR
Method: as §1

PRAK(h) = PRAK(h) (Homo sapiens, UniProt Q8IW41)
Method: as §1

SPRK1(h) = SPRK1(h) (Homo sapiens, UniProt Q96SB4)
Method: as §1

GSK3β(h) = GSK3β(h) (Homo sapiens, UniProt P49841)
Method: as §1

MAPKAP-K2(h) = MAPKAP-K2(h) (Homo sapiens, UniProt P49137)
Method: as §1

IGF-1R(h) = IGF-1R(h) (Homo sapiens, UniProt P08069)
Method: as §1

Fyn(h) = Fyn(h) (Homo sapiens, UniProt P06241)
Method: as §1

DRAK1(h) = DRAK1(h) (Homo sapiens, UniProt Q9UEE5)
Method: as §1

EphA5(h) = EphA5(h) (Homo sapiens, UniProt P54756)
Method: as §1

PI3 Kinase (p120γ)(h) = PI3 Kinase (p120γ)(h) (Homo sapiens, UniProt P48736)
Chain of PI3 Kinase (p120γ)(h) (P48736 whole entry): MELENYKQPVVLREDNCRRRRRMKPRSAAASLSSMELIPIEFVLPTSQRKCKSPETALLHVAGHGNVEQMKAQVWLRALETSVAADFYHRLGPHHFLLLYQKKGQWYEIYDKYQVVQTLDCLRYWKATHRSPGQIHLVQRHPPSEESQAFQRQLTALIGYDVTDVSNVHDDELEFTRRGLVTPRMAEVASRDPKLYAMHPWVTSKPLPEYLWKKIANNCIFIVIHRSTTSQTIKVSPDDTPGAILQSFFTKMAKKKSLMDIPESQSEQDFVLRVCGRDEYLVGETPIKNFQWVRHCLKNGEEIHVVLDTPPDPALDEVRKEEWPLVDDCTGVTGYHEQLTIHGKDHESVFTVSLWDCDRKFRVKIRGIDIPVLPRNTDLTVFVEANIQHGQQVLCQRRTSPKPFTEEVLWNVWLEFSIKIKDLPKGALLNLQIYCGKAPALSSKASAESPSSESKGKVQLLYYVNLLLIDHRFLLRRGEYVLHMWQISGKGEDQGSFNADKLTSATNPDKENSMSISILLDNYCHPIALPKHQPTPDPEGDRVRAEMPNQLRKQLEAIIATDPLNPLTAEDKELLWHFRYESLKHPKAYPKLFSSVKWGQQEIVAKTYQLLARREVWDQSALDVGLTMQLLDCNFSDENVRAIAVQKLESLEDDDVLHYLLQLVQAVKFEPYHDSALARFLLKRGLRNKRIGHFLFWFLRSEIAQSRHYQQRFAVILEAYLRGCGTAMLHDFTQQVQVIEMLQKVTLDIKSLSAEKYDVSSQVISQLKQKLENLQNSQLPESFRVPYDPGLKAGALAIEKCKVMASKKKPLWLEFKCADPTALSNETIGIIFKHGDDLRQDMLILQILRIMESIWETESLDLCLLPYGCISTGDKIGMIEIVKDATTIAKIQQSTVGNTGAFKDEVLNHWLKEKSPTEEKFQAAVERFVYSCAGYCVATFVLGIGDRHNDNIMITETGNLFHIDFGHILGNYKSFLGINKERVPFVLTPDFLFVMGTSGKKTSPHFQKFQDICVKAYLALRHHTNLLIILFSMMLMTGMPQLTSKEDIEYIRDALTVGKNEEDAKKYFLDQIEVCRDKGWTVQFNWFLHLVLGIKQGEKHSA
Method: as §1

JAK2(h) = JAK2(h) (Homo sapiens, UniProt O60674)
Method: as §1

CDK2/cyclinA(h) = CDK2/cyclinA(h) (Homo sapiens, UniProt P24941)
Method: as §1

Aurora-A(h) = Aurora-A(h) (Homo sapiens, UniProt O14965)
Method: as §1

PKG1α(h) = PKG1α(h) (Homo sapiens, UniProt Q13976)
Method: as §1

Mnk2(h) = Mnk2(h) (Homo sapiens, UniProt Q9HBH9)
Method: as §1

mTOR(h) = mTOR(h) (Homo sapiens, UniProt P42345)
Method: as §1

CDK1/cyclinB(h) = CDK1/cyclinB(h) (Homo sapiens, UniProt P06493)
Method: as §1

IRAK4(h) = IRAK4(h) (Homo sapiens, UniProt Q9NWZ3)
Chain of IRAK4(h) (Q9NWZ3 whole entry): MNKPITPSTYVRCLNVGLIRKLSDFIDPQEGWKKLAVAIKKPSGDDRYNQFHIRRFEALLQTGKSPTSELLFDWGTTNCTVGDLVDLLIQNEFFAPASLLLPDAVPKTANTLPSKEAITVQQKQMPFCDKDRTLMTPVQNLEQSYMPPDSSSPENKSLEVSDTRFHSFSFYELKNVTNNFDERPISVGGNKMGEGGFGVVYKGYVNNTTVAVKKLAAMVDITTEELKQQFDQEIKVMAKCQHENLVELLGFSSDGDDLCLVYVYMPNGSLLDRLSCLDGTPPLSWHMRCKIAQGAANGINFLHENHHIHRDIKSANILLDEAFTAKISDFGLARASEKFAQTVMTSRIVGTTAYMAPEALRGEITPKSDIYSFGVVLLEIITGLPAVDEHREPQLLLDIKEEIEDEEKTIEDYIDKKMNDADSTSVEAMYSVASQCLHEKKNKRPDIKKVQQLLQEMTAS
Method: as §1

MLK1(h) = MLK1(h) (Homo sapiens, UniProt P80192)
Chain of MLK1(h) (P80192 whole entry): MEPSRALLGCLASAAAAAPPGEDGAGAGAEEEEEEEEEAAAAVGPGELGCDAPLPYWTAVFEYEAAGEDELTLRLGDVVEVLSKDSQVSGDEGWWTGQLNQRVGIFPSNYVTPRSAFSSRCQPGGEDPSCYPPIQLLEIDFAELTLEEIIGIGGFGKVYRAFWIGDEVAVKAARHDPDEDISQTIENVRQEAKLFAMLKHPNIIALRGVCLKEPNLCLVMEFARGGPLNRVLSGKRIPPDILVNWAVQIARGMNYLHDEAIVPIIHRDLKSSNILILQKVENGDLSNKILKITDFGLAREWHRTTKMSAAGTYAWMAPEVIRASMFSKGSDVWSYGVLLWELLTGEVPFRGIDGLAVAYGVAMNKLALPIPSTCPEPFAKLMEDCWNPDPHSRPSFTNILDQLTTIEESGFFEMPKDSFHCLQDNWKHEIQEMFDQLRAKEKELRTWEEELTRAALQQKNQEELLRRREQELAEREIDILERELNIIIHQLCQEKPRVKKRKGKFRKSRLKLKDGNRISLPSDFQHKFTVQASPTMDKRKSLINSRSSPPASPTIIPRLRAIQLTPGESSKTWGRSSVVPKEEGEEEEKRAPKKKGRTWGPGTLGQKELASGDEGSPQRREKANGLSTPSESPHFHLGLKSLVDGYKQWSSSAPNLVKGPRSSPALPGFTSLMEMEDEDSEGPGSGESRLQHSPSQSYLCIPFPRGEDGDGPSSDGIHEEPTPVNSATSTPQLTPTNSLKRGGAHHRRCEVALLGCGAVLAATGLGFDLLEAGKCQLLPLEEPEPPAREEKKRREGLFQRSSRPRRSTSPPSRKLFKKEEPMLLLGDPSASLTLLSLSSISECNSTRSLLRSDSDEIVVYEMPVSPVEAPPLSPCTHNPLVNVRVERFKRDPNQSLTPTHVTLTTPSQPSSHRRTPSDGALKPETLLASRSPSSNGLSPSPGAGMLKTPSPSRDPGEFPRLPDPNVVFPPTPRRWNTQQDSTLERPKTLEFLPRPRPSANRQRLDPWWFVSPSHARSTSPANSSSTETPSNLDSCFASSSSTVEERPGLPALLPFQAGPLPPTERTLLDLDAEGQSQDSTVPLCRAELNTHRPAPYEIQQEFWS
Method: as §1

CDK7/cyclinH/MAT1(h) = CDK7/cyclinH/MAT1(h) (Homo sapiens, UniProt P50613)
Method: as §1

ROCK-I(h) = ROCK-I(h) (Homo sapiens, UniProt Q13464)
Method: as §1

p70S6K(h) = p70S6K(h) (Homo sapiens, UniProt P23443)
Method: as §1

Question: How did the remaining activity at 0.01 µM (PDGFRβ(h); Lut014 @ 0.01 μM) turn out when `Cc1ccc2c(Nc3cccc(OC(F)(F)F)c3)nccc2c1Nc1ncccc1-c1ncnc2[nH]cnc12` [LUT014] was run?
Answer: 98%

Question: What about the remaining activity at 1 µM (PDGFRβ(h); Lut014 @ 1 μM) of the same compound?
Answer: 103%

Question: And the remaining activity at 0.01 µM (MST1(h); Lut014 @ 0.01 μM)?
Answer: 98%

Question: What about the remaining activity at 1 µM (MST1(h); Lut014 @ 1 μM) of the same compound?
Answer: 112%

Question: What about the remaining activity at 0.01 µM (Abl(h); Lut014 @ 0.01 μM) of the same compound?
Answer: 92%

Question: What about the remaining activity at 1 µM (Abl(h); Lut014 @ 1 μM) of the same compound?
Answer: 25%

Question: What about the remaining activity at 0.01 µM ([1]; Lut014 @ 0.01 μM) of the same compound?
Answer: 92%

Question: And the remaining activity at 1 µM ([1]; Lut014 @ 1 μM)?
Answer: 84%

Question: And the remaining activity at 0.01 µM (eEF-2K(h); Lut014 @ 0.01 μM)?
Answer: 95%

Question: What about the remaining activity at 1 µM (eEF-2K(h); Lut014 @ 1 μM) of the same compound?
Answer: 106%

Question: What about the remaining activity at 0.01 µM (LOK(h); Lut014 @ 0.01 μM) of the same compound?
Answer: 98%

Question: What about the remaining activity at 1 µM (LOK(h); Lut014 @ 1 μM) of the same compound?
Answer: 83%

Question: What about the remaining activity at 0.01 µM (PAK2(h); Lut014 @ 0.01 μM) of the same compound?
Answer: 95%

Question: And the remaining activity at 1 µM (PAK2(h); Lut014 @ 1 μM)?
Answer: 111%

Question: What about the remaining activity at 0.01 µM (Plk3(h); Lut014 @ 0.01 μM) of the same compound?
Answer: 85%

Question: And the remaining activity at 1 µM (Plk3(h); Lut014 @ 1 μM)?
Answer: 87%

Question: What about the remaining activity at 0.01 µM (CaMKI(h); Lut014 @ 0.01 μM) of the same compound?
Answer: 101%

Question: And the remaining activity at 1 µM (CaMKI(h); Lut014 @ 1 μM)?
Answer: 97%

Question: What about the remaining activity at 0.01 µM ([2]; Lut014 @ 0.01 μM) of the same compound?
Answer: 96%

Question: What about the remaining activity at 1 µM ([2]; Lut014 @ 1 μM) of the same compound?
Answer: 94%

Question: What about the remaining activity at 0.01 µM (PRAK(h); Lut014 @ 0.01 μM) of the same compound?
Answer: 101%

Question: And the remaining activity at 1 µM (PRAK(h); Lut014 @ 1 μM)?
Answer: 103%

Question: What about the remaining activity at 0.01 µM (SPRK1(h); Lut014 @ 0.01 μM) of the same compound?
Answer: 105%

Question: What about the remaining activity at 1 µM (SPRK1(h); Lut014 @ 1 μM) of the same compound?
Answer: 100%

Question: What about the remaining activity at 0.01 µM (GSK3β(h); Lut014 @ 0.01 μM) of the same compound?
Answer: 105%

Question: And the remaining activity at 1 µM (GSK3β(h); Lut014 @ 1 μM)?
Answer: 98%

Question: And the remaining activity at 0.01 µM (MAPKAP-K2(h); Lut014 @ 0.01 μM)?
Answer: 110%

Question: What about the remaining activity at 1 µM (MAPKAP-K2(h); Lut014 @ 1 μM) of the same compound?
Answer: 103%

Question: What about the remaining activity at 0.01 µM (IGF-1R(h); Lut014 @ 0.01 μM) of the same compound?
Answer: 88%

Question: And the remaining activity at 1 µM (IGF-1R(h); Lut014 @ 1 μM)?
Answer: 86%

Question: What about the remaining activity at 0.01 µM (Fyn(h); Lut014 @ 0.01 μM) of the same compound?
Answer: 103%

Question: And the remaining activity at 1 µM (Fyn(h); Lut014 @ 1 μM)?
Answer: 95%

Question: What about the remaining activity at 0.01 µM (DRAK1(h); Lut014 @ 0.01 μM) of the same compound?
Answer: 99%

Question: What about the remaining activity at 1 µM (DRAK1(h); Lut014 @ 1 μM) of the same compound?
Answer: 117%

Question: And the remaining activity at 0.01 µM (EphA5(h); Lut014 @ 0.01 μM)?
Answer: 99%

Question: And the remaining activity at 1 µM (EphA5(h); Lut014 @ 1 μM)?
Answer: 56%

Question: And the remaining activity at 0.01 µM (PI3 Kinase (p120γ)(h); Lut014 @ 0.01 μM)?
Answer: 96%

Question: What about the remaining activity at 1 µM (PI3 Kinase (p120γ)(h); Lut014 @ 1 μM) of the same compound?
Answer: 83%

Question: And the remaining activity at 0.01 µM (JAK2(h); Lut014 @ 0.01 μM)?
Answer: 126%

Question: And the remaining activity at 1 µM (JAK2(h); Lut014 @ 1 μM)?
Answer: 118%

Question: And the remaining activity at 0.01 µM (CDK2/cyclinA(h); Lut014 @ 0.01 μM)?
Answer: 106%

Question: And the remaining activity at 1 µM (CDK2/cyclinA(h); Lut014 @ 1 μM)?
Answer: 95%

Question: And the remaining activity at 0.01 µM (Aurora-A(h); Lut014 @ 0.01 μM)?
Answer: 95%

Question: What about the remaining activity at 1 µM (Aurora-A(h); Lut014 @ 1 μM) of the same compound?
Answer: 97%

Question: And the remaining activity at 0.01 µM (PKG1α(h); Lut014 @ 0.01 μM)?
Answer: 99%

Question: And the remaining activity at 1 µM (PKG1α(h); Lut014 @ 1 μM)?
Answer: 111%

Question: And the remaining activity at 0.01 µM (Mnk2(h); Lut014 @ 0.01 μM)?
Answer: 112%

Question: What about the remaining activity at 1 µM (Mnk2(h); Lut014 @ 1 μM) of the same compound?
Answer: 107%

Question: And the remaining activity at 0.01 µM (mTOR(h); Lut014 @ 0.01 μM)?
Answer: 100%

Question: What about the remaining activity at 1 µM (mTOR(h); Lut014 @ 1 μM) of the same compound?
Answer: 96%

Question: What about the remaining activity at 0.01 µM (CDK1/cyclinB(h); Lut014 @ 0.01 μM) of the same compound?
Answer: 113%

Question: And the remaining activity at 1 µM (CDK1/cyclinB(h); Lut014 @ 1 μM)?
Answer: 102%

Question: What about the remaining activity at 0.01 µM (IRAK4(h); Lut014 @ 0.01 μM) of the same compound?
Answer: 94%

Question: What about the remaining activity at 1 µM (IRAK4(h); Lut014 @ 1 μM) of the same compound?
Answer: 109%

Question: And the remaining activity at 0.01 µM (MLK1(h); Lut014 @ 0.01 μM)?
Answer: 109%

Question: And the remaining activity at 1 µM (MLK1(h); Lut014 @ 1 μM)?
Answer: 112%

Question: What about the remaining activity at 0.01 µM (CDK7/cyclinH/MAT1(h); Lut014 @ 0.01 μM) of the same compound?
Answer: 105%

Question: What about the remaining activity at 1 µM (CDK7/cyclinH/MAT1(h); Lut014 @ 1 μM) of the same compound?
Answer: 109%

Question: And the remaining activity at 0.01 µM (ROCK-I(h); Lut014 @ 0.01 μM)?
Answer: 107%

Question: What about the remaining activity at 1 µM (ROCK-I(h); Lut014 @ 1 μM) of the same compound?
Answer: 107%

Question: What about the remaining activity at 0.01 µM (p70S6K(h); Lut014 @ 0.01 μM) of the same compound?
Answer: 108%

Question: What about the remaining activity at 1 µM (p70S6K(h); Lut014 @ 1 μM) of the same compound?
Answer: 97%
